Reference: patent EP0535528A1, “Antibacterial 5-Nitro-1-methyl-imidazolyl-3-terbutyl-2-hydroxy-aryl-carbinols” (EURORESEARCH S.r.L., priority 1991, dated 1993)
In brackets after ≈: the same amount, converted by molar mass.

What was measured:
Swiss female albino mice = experiment: Oral and intraperitoneal acute toxicity in mice (LD50, Probits method); assay type: in vivo; conditions: mice
Procedure: 20 Swiss female albino mice are used for this test of the average weight of 20 g (±2), coming from Nossan breeding .
Cages: in Makrolon® with saw dust litter, Number of animals per cage: 5 Acclimation period: 1 week Temperature: 22°C (± 2°C) Humidity : 60%, Diet: pellets for mice produced by Nossan firm, Water ad libitum Fast before the treatment: 16 hours
Oral by gastric route and intraperitoneal.
The substances to be studied: EU11100, EU11102, EU11103, EU11104 are treated with 0.5% carboxymethylcellulose in spring water, for the oral administration, whereas the same substances are intraperitoneally administered in the form of a physiological solution .
For each of the above mentioned substances, a mother suspension is prepared having a concentration in the active ingredient of 250 mg/ml for the oral administration, and analogously a mother suspension is prepared for the intraperitoneal administration having a concentration of the desired active principle of 100 mg/ml.
The following doses are used • a) oral route: 5000 mg/kg • b) intraperitoneal route : 2000 mg/kg
If mortality is observed at the above mentioned doses, other doses are administered in order to obtain a dose-response curve.
5 animals are used for every utilized concentration.
After the administration of the above substances the animals are kept under observation for 14 days , during which the mortality and the behaviour is observed.
LD₅₀ is determined on the base of the cumulative mortality observed in the successive 14 days after the administration by using the Probits method.

Helicobapter pylori [1] = experiment: Inhibition halos of the bacterial growth (impregnated disks on agar); assay type: cell-based; conditions: for activity against the Helicobapter pylori strains used: 10 strains; for Inhibition halo (mm), Average: average of 10 strains
Procedure: Comparison substance: Metronidazole Solubilization of the substances : All the substances to be studied are dissolved at room temperature in DMSO.
Some commercially available antibiogram disks are so impregnated with the above mentioned compounds that each disk has concentration equal to 10, 1, 0.1, 0.01 µg.
10 strains of Helicobapter pylori are used of recent clinical isolation.
Columbia Blood Agar Base is used, containing 5% of defibrinated horse blood, 2 % of calf serum, 2 vials of Vitox per liter of medium and Vancomicine (10 µg/ml) Trimetoprim lactate(5 µg/ml) and Polimixin B (2.5 U/ml).
0.1 ml of a suspension of the different used strains are uniformly distributed onto Petri plates, containing 20 ml of Columbia Blood Agar base, obtained by taking a sample, by means of a platinum loop, of different colonies from a 48 hours culture, grown in anaerobiosis jars with "Gas Pack", without a catalyst and diluted into a physiological solution.
4 disks per plate, previously impregnated with the substances under examination, are then placed onto the agar layer of each plate.
After 48 hours of anaerobiosis incubation, as above described, the inhibition halos of the bacterial growth, produced by the different activity of the substances inside the agar, are evaluated.

Helicobapter pylori [2] = experiment: Minimal inhibiting concentration (agar dilution); assay type: cell-based
Procedure: Substances under examination: EU11100, EU11102, EU11103, EU11104. Comparison substance: Metronidazole Solubilization of the substances: All the substances to be studied are dissolved at room temperature in DMSO. […] 10 strains of Helicobapter pylori are used of recent clinical isolation […] The sowing of the bacteria, prepared as described in the preceding test is carried out by means a "multi-point inoculator". After 48 hours incubation under the condition described in the preceding test, the plates are examined and the Minimal Inhibiting Concentration is evaluated, namely that dose corresponding to growth absence.

## Cc1ccc(C(C)(C)C)c(O)c1C(O)c1ncc([N+](=O)[O-])n1C (centres unmarked) [EU11104, 5-nitro-1-methyl-imidazolyl-3-terbutyl-2-hydroxy-6 methyl-phenyl-carbinol]
Swiss female albino mice; intraperitoneal, 2000 mg/kg
  toxicity when intraperitoneally administered: not toxic
Swiss female albino mice; oral, 5000 mg/kg
  toxicity when orally administered: not toxic
Helicobapter pylori [1]; 0.1 µg/disk
  activity against the Helicobapter pylori strains used: active against 4 out of 10 strains
Helicobapter pylori [1]; 1 µg/disk
  activity against the Helicobapter pylori strains used: active against all the Helicobapter pylori used
  Inhibition halo (mm), Average: 24.9 mm
Helicobapter pylori [1]; disk test
  activity against the Helicobapter pylori strains used: active against all the Helicobapter pylori strains used
Helicobapter pylori [1]; 10 µg/disk
  Inhibition halo (mm), Average: 31.5 mm
Helicobapter pylori [1]; strain 1, 0.01 µg/disk
  Inhibition halo (mm) at the concentration (µg/disk): 0 mm
Helicobapter pylori [1]; strain 1, 1 µg/disk
  Inhibition halo (mm) at the concentration (µg/disk): 27 mm
Helicobapter pylori [1]; strain 1, 10 µg/disk
  Inhibition halo (mm) at the concentration (µg/disk): 33 mm
Helicobapter pylori [1]; strain 2, 0.01 µg/disk
  Inhibition halo (mm) at the concentration (µg/disk): 0 mm
Helicobapter pylori [1]; strain 2, 0.1 µg/disk
  Inhibition halo (mm) at the concentration (µg/disk): 0 mm
Helicobapter pylori [1]; strain 2, 1 µg/disk
  Inhibition halo (mm) at the concentration (µg/disk): 22 mm
Helicobapter pylori [1]; strain 2, 10 µg/disk
  Inhibition halo (mm) at the concentration (µg/disk): 30 mm
Helicobapter pylori [1]; strain 3, 0.01 µg/disk
  Inhibition halo (mm) at the concentration (µg/disk): 0 mm
Helicobapter pylori [1]; strain 3, 0.1 µg/disk
  Inhibition halo (mm) at the concentration (µg/disk): 0 mm
Helicobapter pylori [1]; strain 3, 1 µg/disk
  Inhibition halo (mm) at the concentration (µg/disk): 22 mm
Helicobapter pylori [1]; strain 3, 10 µg/disk
  Inhibition halo (mm) at the concentration (µg/disk): 28 mm
Helicobapter pylori [1]; strain 4, 0.01 µg/disk
  Inhibition halo (mm) at the concentration (µg/disk): 0 mm
Helicobapter pylori [1]; strain 4, 1 µg/disk
  Inhibition halo (mm) at the concentration (µg/disk): 30 mm
Helicobapter pylori [1]; strain 4, 10 µg/disk
  Inhibition halo (mm) at the concentration (µg/disk): 36 mm
Helicobapter pylori [1]; strain 5, 0.01 µg/disk
  Inhibition halo (mm) at the concentration (µg/disk): 0 mm
Helicobapter pylori [1]; strain 5, 0.1 µg/disk
  Inhibition halo (mm) at the concentration (µg/disk): 0 mm
Helicobapter pylori [1]; strain 5, 1 µg/disk
  Inhibition halo (mm) at the concentration (µg/disk): 22 mm
Helicobapter pylori [1]; strain 5, 10 µg/disk
  Inhibition halo (mm) at the concentration (µg/disk): 28 mm
Helicobapter pylori [1]; strain 6, 0.01 µg/disk
  Inhibition halo (mm) at the concentration (µg/disk): 0 mm
Helicobapter pylori [1]; strain 6, 0.1 µg/disk
  Inhibition halo (mm) at the concentration (µg/disk): 14 mm
Helicobapter pylori [1]; strain 6, 1 µg/disk
  Inhibition halo (mm) at the concentration (µg/disk): 29 mm
Helicobapter pylori [1]; strain 6, 10 µg/disk
  Inhibition halo (mm) at the concentration (µg/disk): 35 mm
Helicobapter pylori [1]; strain 7, 0.01 µg/disk
  Inhibition halo (mm) at the concentration (µg/disk): 0 mm
Helicobapter pylori [1]; strain 7, 0.1 µg/disk
  Inhibition halo (mm) at the concentration (µg/disk): 0 mm
Helicobapter pylori [1]; strain 7, 1 µg/disk
  Inhibition halo (mm) at the concentration (µg/disk): 22 mm
Helicobapter pylori [1]; strain 7, 10 µg/disk
  Inhibition halo (mm) at the concentration (µg/disk): 26 mm
Helicobapter pylori [1]; strain 8, 0.01 µg/disk
  Inhibition halo (mm) at the concentration (µg/disk): 0 mm
Helicobapter pylori [1]; strain 8, 0.1 µg/disk
  Inhibition halo (mm) at the concentration (µg/disk): 17 mm
Helicobapter pylori [1]; strain 8, 1 µg/disk
  Inhibition halo (mm) at the concentration (µg/disk): 31 mm
Helicobapter pylori [1]; strain 8, 10 µg/disk
  Inhibition halo (mm) at the concentration (µg/disk): 37 mm
Helicobapter pylori [1]; strain 9, 0.01 µg/disk
  Inhibition halo (mm) at the concentration (µg/disk): 0 mm
Helicobapter pylori [1]; strain 9, 0.1 µg/disk
  Inhibition halo (mm) at the concentration (µg/disk): 0 mm
Helicobapter pylori [1]; strain 9, 1 µg/disk
  Inhibition halo (mm) at the concentration (µg/disk): 21 mm
Helicobapter pylori [1]; strain 9, 10 µg/disk
  Inhibition halo (mm) at the concentration (µg/disk): 30 mm
Helicobapter pylori [1]; strain 10, 0.01 µg/disk
  Inhibition halo (mm) at the concentration (µg/disk): 0 mm
Helicobapter pylori [1]; strain 10, 0.1 µg/disk
  Inhibition halo (mm) at the concentration (µg/disk): 0 mm
Helicobapter pylori [1]; strain 10, 1 µg/disk
  Inhibition halo (mm) at the concentration (µg/disk): 23 mm
Helicobapter pylori [1]; strain 10, 10 µg/disk
  Inhibition halo (mm) at the concentration (µg/disk): 32 mm
Helicobapter pylori [2]; 10 strains
  MIC 50%: 0.03 mg/L (≈ 0.0939 µM)
  MIC 90%: 0.06 mg/L (≈ 0.188 µM)
  MIC range: 0.015 to 0.016 mg/L
Helicobapter pylori [2]; in words, compared with Metronidazole
  MIC values: very low MIC values
Helicobapter pylori [2]; strain 1
  M.I.C.: 0.12 µg/mL
Helicobapter pylori [2]; strain 2
  M.I.C.: 0.03 µg/mL
Helicobapter pylori [2]; strain 3
  M.I.C.: 0.06 µg/mL
Helicobapter pylori [2]; strain 4
  M.I.C.: 0.015 µg/mL
Helicobapter pylori [2]; strain 5
  M.I.C.: 0.03 µg/mL
Helicobapter pylori [2]; strain 6
  M.I.C.: 0.03 µg/mL
Helicobapter pylori [2]; strain 7
  M.I.C.: 0.06 µg/mL
Helicobapter pylori [2]; strain 8
  M.I.C.: 0.06 µg/mL
Helicobapter pylori [2]; strain 9
  M.I.C.: 0.06 µg/mL
Helicobapter pylori [2]; strain 10
  M.I.C.: 0.015 µg/mL
